Assay results from ChEMBL document CHEMBL1140941 (J Med Chem, 2009).
Activity calls are given as the source filed them. The rule behind the calls is not given here.

Assays:
[1] = molecular target: Oxysterols receptor LXR-alpha (Homo sapiens) (UniProt Q13133); test: Agonist activity at LXRalpha expressed in african green monkey CV1 cells co-expressing LXRE by luciferase reporter gene assay; format: functional, cell-based; conditions: CV-1
[2] = molecular target: T1, Peroxisome proliferator-activated receptor gamma (Homo sapiens) (UniProt P37231); test: Agonist activity at PPARgamma expressed in african green monkey CV1 cells co-expressing PPRE by luciferase reporter gene assay; format: functional, cell-based; conditions: CV-1
T1 sequence (whole entry): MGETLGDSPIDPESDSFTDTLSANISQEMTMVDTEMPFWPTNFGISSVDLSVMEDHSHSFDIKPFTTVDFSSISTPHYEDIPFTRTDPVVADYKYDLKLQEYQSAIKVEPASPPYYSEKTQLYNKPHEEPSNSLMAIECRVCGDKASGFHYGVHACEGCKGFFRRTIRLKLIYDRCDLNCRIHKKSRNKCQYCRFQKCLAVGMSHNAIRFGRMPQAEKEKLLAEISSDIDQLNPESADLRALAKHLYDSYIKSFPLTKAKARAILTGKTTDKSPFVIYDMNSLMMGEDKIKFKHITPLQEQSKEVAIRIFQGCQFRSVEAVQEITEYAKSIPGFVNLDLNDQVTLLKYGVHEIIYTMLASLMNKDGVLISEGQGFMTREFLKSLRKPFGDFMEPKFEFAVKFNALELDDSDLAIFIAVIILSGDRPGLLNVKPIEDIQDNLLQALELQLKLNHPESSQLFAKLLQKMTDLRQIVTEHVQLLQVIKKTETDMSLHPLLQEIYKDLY

[3] = molecular target: T2, Glucocorticoid receptor (Homo sapiens) (UniProt P04150); test: Agonist activity at gal-GR expressed in african green monkey CV1 cells co-expressing MH100 by luciferase reporter gene assay; format: functional, cell-based; conditions: CV-1
T2 sequence (whole entry): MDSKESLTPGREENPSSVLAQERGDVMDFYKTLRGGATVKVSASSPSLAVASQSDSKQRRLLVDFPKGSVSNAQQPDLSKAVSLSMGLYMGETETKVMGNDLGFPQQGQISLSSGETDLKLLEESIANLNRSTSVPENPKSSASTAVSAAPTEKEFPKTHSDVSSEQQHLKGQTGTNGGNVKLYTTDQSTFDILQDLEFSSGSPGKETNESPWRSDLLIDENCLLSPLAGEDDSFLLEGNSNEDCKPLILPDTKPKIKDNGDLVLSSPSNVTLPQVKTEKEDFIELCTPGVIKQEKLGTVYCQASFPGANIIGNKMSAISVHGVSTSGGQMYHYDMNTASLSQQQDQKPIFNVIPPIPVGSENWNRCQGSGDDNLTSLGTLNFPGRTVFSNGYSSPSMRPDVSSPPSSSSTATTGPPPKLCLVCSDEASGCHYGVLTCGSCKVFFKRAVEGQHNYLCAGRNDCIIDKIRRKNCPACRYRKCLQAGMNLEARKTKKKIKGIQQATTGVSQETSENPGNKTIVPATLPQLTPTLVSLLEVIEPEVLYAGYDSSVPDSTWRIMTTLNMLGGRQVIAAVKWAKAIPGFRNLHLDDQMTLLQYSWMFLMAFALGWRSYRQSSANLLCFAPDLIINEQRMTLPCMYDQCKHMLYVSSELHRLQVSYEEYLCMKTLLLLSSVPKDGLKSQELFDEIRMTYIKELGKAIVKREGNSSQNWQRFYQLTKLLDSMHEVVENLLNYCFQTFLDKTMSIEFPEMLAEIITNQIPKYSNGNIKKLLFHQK

[4] = molecular target: T1, Peroxisome proliferator-activated receptor gamma (Homo sapiens); test: Agonist activity at PPARgamma expressed in african green monkey CV1 cells co-expressing PPRE up to 10 uM by luciferase reporter gene assay relative to control; format: functional, cell-based; conditions: CV-1
[5] = molecular target: T3, Progesterone receptor (Homo sapiens) (UniProt P06401); test: Agonist activity at gal-PR expressed in african green monkey CV1 cells co-expressing MH100 up to 10 uM by luciferase reporter gene assay relative to control; format: functional, cell-based; conditions: CV-1
T3 sequence (whole entry): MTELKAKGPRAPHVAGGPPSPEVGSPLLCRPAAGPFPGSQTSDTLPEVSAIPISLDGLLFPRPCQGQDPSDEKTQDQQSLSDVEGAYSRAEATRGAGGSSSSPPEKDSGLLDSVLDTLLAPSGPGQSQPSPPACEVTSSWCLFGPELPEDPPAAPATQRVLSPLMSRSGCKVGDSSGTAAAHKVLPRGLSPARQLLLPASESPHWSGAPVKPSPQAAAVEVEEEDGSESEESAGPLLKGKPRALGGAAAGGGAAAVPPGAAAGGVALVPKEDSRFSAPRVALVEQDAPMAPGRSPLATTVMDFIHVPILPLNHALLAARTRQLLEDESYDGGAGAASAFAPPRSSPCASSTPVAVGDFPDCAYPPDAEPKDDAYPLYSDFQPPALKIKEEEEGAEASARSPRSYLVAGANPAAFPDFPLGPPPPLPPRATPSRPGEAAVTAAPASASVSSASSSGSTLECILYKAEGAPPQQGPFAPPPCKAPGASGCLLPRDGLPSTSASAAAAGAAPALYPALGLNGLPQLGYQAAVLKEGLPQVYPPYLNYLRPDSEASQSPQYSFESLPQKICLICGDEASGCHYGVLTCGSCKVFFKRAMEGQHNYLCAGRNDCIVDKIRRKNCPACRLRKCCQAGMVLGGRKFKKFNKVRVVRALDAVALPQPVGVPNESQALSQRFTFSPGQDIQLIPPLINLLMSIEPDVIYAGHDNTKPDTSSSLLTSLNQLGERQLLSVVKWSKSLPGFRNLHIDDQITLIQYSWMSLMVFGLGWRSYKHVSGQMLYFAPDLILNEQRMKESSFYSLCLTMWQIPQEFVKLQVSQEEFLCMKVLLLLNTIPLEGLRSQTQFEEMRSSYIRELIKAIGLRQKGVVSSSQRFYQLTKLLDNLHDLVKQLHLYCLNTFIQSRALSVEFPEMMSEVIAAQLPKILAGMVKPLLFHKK

[6] = Tmax in CD rat at 3 mg/kg, iv; format: ADME, organism-based; design: dose 3 mg/kg, route intravenous; conditions: in vivo
[7] = system: Mus musculus; test: Reduction of plasma total cholesterol level in western diet-induced hyperlipidemia LDLR knockout mouse model at 1 mg/kg, po administered for 6 weeks; format: functional; design: scale not given: the % may be the effect or the level left

Sequence of Oxysterols receptor LXR-alpha (Homo sapiens) (Q13133 whole entry): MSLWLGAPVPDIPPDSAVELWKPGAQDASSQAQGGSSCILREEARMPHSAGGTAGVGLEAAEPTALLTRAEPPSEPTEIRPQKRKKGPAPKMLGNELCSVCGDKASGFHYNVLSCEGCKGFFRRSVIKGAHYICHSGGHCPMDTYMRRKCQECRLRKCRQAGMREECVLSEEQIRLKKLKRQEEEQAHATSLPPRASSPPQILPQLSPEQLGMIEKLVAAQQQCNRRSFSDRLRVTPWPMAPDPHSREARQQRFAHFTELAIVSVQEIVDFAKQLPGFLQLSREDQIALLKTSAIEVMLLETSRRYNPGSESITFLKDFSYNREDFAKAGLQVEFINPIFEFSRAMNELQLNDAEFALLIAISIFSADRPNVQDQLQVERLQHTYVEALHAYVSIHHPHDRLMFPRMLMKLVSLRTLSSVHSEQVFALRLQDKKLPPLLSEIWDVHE

**Q.** With `CC(C)OC(=O)C1=CN(C(=O)c2ccc(F)c(F)c2)CC(C)(C)c2c1[nH]c1ccccc21` [TUROFEXORATE ISOPROPYL] as the compound, how does the Activity [1] read?
**A.** Its Activity is “inactive”.

**Q.** What about the Activity [2] of the same compound?
**A.** Its Activity is “inactive”.

**Q.** And the Activity [3]?
**A.** Its Activity is “inactive”.

**Q.** And the Activity [4]?
**A.** Its Activity is “inactive”.

**Q.** What about the Activity [5] of the same compound?
**A.** The Activity was “inactive”.

**Q.** What about the Tmax [6] of the same compound?
**A.** Its Tmax is 1.2 min.

**Q.** And the Activity [7]?
**A.** Its Activity is 23%.
